The source of these data is patent publication US5559110A, “Pharmaceutical formulations of cyclic urea type compounds” (The DuPont Merck Pharmaceutical Company, priority 1994, dated 1996).

Each structure is given as a SMILES string. Values after ≈ are worked out from the molar mass of the structure shown.

The format of data set [1] is physicochemical. The method, then: Vehicles were evaluated for their capacity to solubilize a cyclic urea compound. Several methods were used. In Method A, vehicles were heated to 70°-80° C. and weighed amounts of the cyclic urea compound were added incrementally until the compound no longer dissolved. This is a visual estimation of solubility. In Method B, vehicles were prepared as in Method A, then cooled to room temperature, and then reheated to 50° C. Suspensions were filtered at 50° C. and compound concentrations in the liltrate filtrate were measured using a high performance liquid chromatographic (HPLC) method, providing the results shown under Method B.
Specifically, the vehicles of Table 1 were prepared and evaluated for solubility of a cyclic urea antiviral agent. The agent for Example 1 was [4R--(4a, 5a, 6β, 7β)]-hexahydro-5,6-bis(hydroxy)-1,3-bis([(4-hydroxymethyl)phenyl]methyl)-4,7-bis(phenylmethyl)-2H-1,3-diazepin-2-one. This compound corresponds to Ex. No. 5U in the above-cited PCT Application WO 93/07128, and is sometimes hereinafter referred to as Ex. No. 5U. In Table 1, all percentages are by weight.

Data set [2] can be described thus: physchem. Format: physicochemical. The source says:
The cyclic urea antiviral agents of this invention are generally poorly water-soluble. Poor water solubility could be related to low oral bioavailability and dose-related bioavailability. One effect of the formulation ingredients may be to alter water solubility. Water solubility in the presence of dilute concentrations of the formulation ingredients could then be related to oral bioavailability. Dilute formulation ingredients could mimic the dilution of an administered dosage form upon reaching the aqueous environment within the gastrointestinal tract. Aqueous solubility studies of cyclic urea antiviral agents were performed in the presence of dilute concentrations of possible formulation ingredients in this Example 4.
Specifically, aqueous solutions were prepared containing 4% (w/v) of the formulation ingredients listed. Excess solid compound [4R-(4α, 5α, 6β, 7β)]-hexahydro-5,6-bis (hydroxy)-1,3-bis ([(4-hydroxymethyl)phenyl]methyl)-4,7-bis (phenylmethyl)-2H-1,3-diazepin-2-one (Ex. No. 5U) was added and the samples were mixed 24 hours. Samples were filtered, and Ex. No. 5U solubility was determined by measuring filtrate drug concentrations using HPLC.

The conditions of data set [3]: in vivo; cited from earlier work.

In the case of `O=C1N(Cc2ccc(CO)cc2)[C@H](Cc2ccccc2)[C@H](O)[C@@H](O)[C@@H](Cc2ccccc2)N1Cc1ccc(CO)cc1` [Ex. No. 5U, [4R-(4α, 5α, 6β, 7β)]-hexahydro-5,6-bis(hydroxy)-1,3-bis([(4-hydroxymethyl)phenyl]methyl)-4,7-bis(phenylmethyl)-2H-1,3-diazepin-2-one], in data set [1], the “solubility in vehicle (in words)” value is recorded as “increased solubility”. The solubility at 24 h in data set [2] (4% peg-60 hydrogenated castor oil, organic solvent or mixture) was 715 µg/mL (≈ 1260 µM); in data set [2] (water), 5 µg/mL (≈ 8.82 µM); in data set [2] (water with 4% peg-8, organic solvent or mixture), 12 µg/mL (≈ 21.2 µM); in data set [2] (water, 4% gelucire 44/14) it was 758 µg/mL (≈ 1340 µM); in data set [2] (water, 4% glycerol dilaurate, organic solvent or mixture) it was 11 µg/mL (≈ 19.4 µM); in data set [2] (water, 4% labrasol), 410 µg/mL (≈ 723 µM). Further, the solubility at 24 h in data set [2] (water, 4% peg-4 laurate, organic solvent or mixture) is 81 µg/mL (≈ 143 µM); in data set [2] (water, 4% peg-8 laurate, organic solvent or mixture), 283 µg/mL (≈ 499 µM); in data set [2] (water, 4% peg-8 stearate, organic solvent or mixture), 44 µg/mL (≈ 77.6 µM); in data set [2] (water, 4% peg-40 stearate, organic solvent or mixture) it was 718 µg/mL (≈ 1270 µM).

As for `COC1=CC(=O)C[C@@H](C)[C@]12Oc1c(Cl)c(OC)cc(OC)c1C2=O` [griseofulvin], in data set [3], the “oral bioavailability (in words)” value is given as “increased”.

One may read the solubility as the dissolved amount per volume that the medium holds.
